Source: paper PMC2749524 (Cancer research, 2009)

Assays:
[1] = system: U87MG xenografts (tumor glucose metabolism); test: FDG microPET/CT tumor uptake in U87MG xenografts
[2] = system: U87MG xenografts (αVβ3 integrin activity); test: microPET/CT tumor uptake of [^64Cu]DOTA–c; format: in vivo, SCID mice; conditions: 72 h; for reduction of [^64Cu]DOTA–c(RGDfK) tumor uptake: vs vehicle controls, PET 15 h post injection
[3] = system: U87MG xenografts; test: Histology and immunohistochemistry of frozen tumor sections; format: in vivo, SCID mice; conditions: 95 mg/kg, 72 h
[4] = system: αVβ3 focal adhesions in U87MG cells; test: Immunofluorescence of dimerized αVβ3; format: cell-based, human; conditions: 100 nM, 3 h, U87MG on fibronectin
[5] = system: αVβ3 integrin on U87MG cells; test: Flow cytometry of surface αVβ3 integrin expression; format: cell-based, human; conditions: 100 nM, 6 or 24 h, FACS, LM609 antibody, samples in duplicate
[6] = system: Src family kinases / Focal Adhesion Kinase phosphorylation in U87MG cells; test: Western blot of phospho-Src, phospho-FAK and β3 in U87MG cell lysates; format: cell-based, human; conditions: 100 nM
[7] = system: U87MG xenografts; test: U87MG xenograft tumor growth; format: in vivo, SCID mice

| Compound | tumor FDG uptake in vehicle controls ([1]; U87MG xenograft, 7–10 MBq FDG, 1 h uptake, mean ± SD) | reduction of [^64Cu]DOTA–c(RGDfK) tumor uptake ([2]; 72 mg/kg daily gavage) | reduction of [^64Cu]DOTA–c(RGDfK) tumor uptake ([2]; 95 mg/kg daily gavage) | tracer distribution and organ uptake, treated vs untreated animals ([2]; 95 mg/kg, dynamic PET, normal organs, except U87 xenografts) | change in tumor FDG uptake ([1]; 95 mg/kg, 72 h, p=0.1704) | tumor viability and vascularization (H&E, CD31) [3] | phospho-FAK (Y861) staining in tumors ([3]; immunohistochemistry, relative to control) | αVβ3 staining in tumors ([3]; treated vs control, LM609 antibody) | αVβ3 clustering in focal adhesion complexes [4] | total dimerized cell surface αVβ3 protein level [5] | total β3 levels ([6]; 6 or 24 h) | FAK phosphorylation at tyrosine 397 ([6]; 6 h) | FAK phosphorylation at tyrosine 861 ([6]; 6 h) | SFK phosphorylation at tyrosine 416 ([6]; 6 h) | difference in tumor size between control and treated animals ([7]; after 10 consecutive days of treatment) | difference in tumor size at the time of PET imaging ([7]; day 3, p=0.1272) |
| --- | --- | --- | --- | --- | --- | --- | --- | --- | --- | --- | --- | --- | --- | --- | --- | --- |
| OC[C@H]1OC(O)[C@H]([18F])[C@@H](O)[C@@H]1O (stereo partly shown) [FDG, [^18F]fluorodeoxyglucose] | 10.39±1.04 % ID/g | – | – | – | – | – | – | – | – | – | – | – | – | – | – | – |
| Cc1nc(Nc2ncc(C(=O)Nc3c(C)cccc3Cl)s2)cc(N2CCN(CCO)CC2)n1 [dasatinib] | – | 39% | 59% | virtually identical | no significant change | remained viable and vascularized | reduced | no difference | no longer clustered in focal adhesion complexes | did not change relative to control | nor did total β3 levels decrease | decrease | target inhibition | target inhibition | six-fold | no appreciable difference |
